In one experiment the target is PKMYT1 (Homo sapiens (Human), UniProt Q99640). Nature of the experiment: In vitro assay: kinase binding to immobilized ligand, captured kinase measured by qPCR. (Quantitative PCR measures a nucleic acid by following its amplification.)
For another experiment, the target named is LCK (Homo sapiens (Human), UniProt P06239). The description is as above. The source says:
Example B-1: In Vitro Assay
Compounds that bind the kinase active site and directly (sterically) or indirectly (allosterically) prevent kinase binding to an immobilized ligand and reduce the amount of kinase captured on the solid support. Screening “hits” were identified by measuring the amount of kinase captured in test versus control samples by using a quantitative, precise and ultra-sensitive qPCR method that detect the associated DNA label. In a similar manner, dissociation constants (Kd's) for test compound-kinase interactions were calculated by measuring the amount of kinase captured on the solid support as a function of the test compound concentration.

Sequence of PKMYT1 (Q99640 whole entry): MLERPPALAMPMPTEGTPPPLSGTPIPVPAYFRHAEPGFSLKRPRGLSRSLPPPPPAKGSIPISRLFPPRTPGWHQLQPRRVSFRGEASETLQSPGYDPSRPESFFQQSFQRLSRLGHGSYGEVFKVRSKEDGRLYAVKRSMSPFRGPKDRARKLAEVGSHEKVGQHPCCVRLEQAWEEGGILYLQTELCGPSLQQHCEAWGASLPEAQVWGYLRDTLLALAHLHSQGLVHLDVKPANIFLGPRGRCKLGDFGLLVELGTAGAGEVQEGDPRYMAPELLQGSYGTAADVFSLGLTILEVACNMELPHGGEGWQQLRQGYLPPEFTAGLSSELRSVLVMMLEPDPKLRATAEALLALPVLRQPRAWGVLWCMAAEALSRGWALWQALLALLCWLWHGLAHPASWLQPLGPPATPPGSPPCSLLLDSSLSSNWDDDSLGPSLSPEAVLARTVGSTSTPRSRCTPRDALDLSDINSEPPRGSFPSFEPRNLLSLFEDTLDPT
Sequence of LCK (P06239 whole entry): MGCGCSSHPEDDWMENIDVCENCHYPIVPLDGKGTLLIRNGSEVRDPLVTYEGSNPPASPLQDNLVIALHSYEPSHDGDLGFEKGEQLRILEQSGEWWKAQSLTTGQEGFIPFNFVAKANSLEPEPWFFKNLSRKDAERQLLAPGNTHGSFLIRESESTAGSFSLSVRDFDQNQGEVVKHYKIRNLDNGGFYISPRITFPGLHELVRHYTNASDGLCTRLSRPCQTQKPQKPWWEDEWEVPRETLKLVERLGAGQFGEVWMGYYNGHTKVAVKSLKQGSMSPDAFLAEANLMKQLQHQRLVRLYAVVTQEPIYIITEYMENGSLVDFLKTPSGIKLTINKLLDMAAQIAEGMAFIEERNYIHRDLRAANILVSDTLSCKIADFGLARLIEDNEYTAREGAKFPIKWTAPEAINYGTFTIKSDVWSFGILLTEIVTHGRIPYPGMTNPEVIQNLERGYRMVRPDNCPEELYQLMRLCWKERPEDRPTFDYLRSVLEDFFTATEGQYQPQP

Regarding `Cc1ccc(O)c(C)c1-n1c(N)c(C(N)=O)c2cnc(NCCO)nc21` [Compound 559, 6-amino-7-(3-hydroxy-2,6-dimethylphenyl)-2-((2-hydroxyethyl)amino)-7H-pyrrolo[2,3-d]pyrimidine-5-carboxamide], the IC50 on PKMYT1 and on LCK was < 50 nM in each case.
In the case of `Cc1ccc(O)c(C)c1-n1c(N)c(C(N)=O)c2cnc(CCc3cscn3)c(F)c21` [Compound 638], the IC50 at PKMYT1 and on LCK was < 50 nM throughout.
With `Cc1cc(F)c(O)c(C)c1-n1c(N)c(C(N)=O)c2cc(Cl)cnc21` [Compound 603, 2-amino-5-chloro-1-(4-fluoro-3-hydroxy-2,6-dimethyl-phenyl)pyrrolo[2,3-b]pyridine-3-carboxamide], the half-maximal inhibitory concentration (IC50) on PKMYT1 and on LCK was < 50 nM in each case.
`Cc1ncc2c(C(N)=O)c(N)n(-c3c(C)cc(F)c(O)c3C)c2n1` [Compound 602, 6-amino-7-(4-fluoro-3-hydroxy-2,6-dimethyl-phenyl)-2-methyl-pyrrolo[2,3-d]pyrimidine-5-carboxamide]: the IC50 (in general, the concentration needed to halve the response being measured) was < 50 nM at PKMYT1 and 100 to 1000 nM at LCK.
For `Cc1ccc(O)c(C)c1-n1c(N)c(C(N)=O)c2cnc(-c3ccc(C(C)(C)C)cc3)nc21` [Compound 600, 6-amino-2-(4-(tert-butyl)phenyl)-7-(3-hydroxy-2,6-dimethylphenyl)-7H-pyrrolo[2,3-d]pyrimidine-5-carboxamide] the same measures were 100 to 1000 nM and 100 to 1000 nM.
With `Cc1ccc(O)c(C)c1-n1c(N)c(C(N)=O)c2cnc(C#CC(F)(F)F)nc21` [Compound 648], the IC50 at PKMYT1 is 50 to 100 nM; on LCK it was < 50 nM.
Take `Cc1ncc2c(C(N)=O)c(N)n(-c3c(C)ccc(O)c3C)c2n1` (single isomer, unassigned) [Compound 578, 6-amino-7-(3-hydroxy-2,6-dimethyl-phenyl)-2-methyl-pyrrolo[2,3-d]pyrimidine-5-carboxamide]: the IC50 at LCK is > 1000 nM.
`Cc1ncc2c(C(N)=O)c(N)n(-c3c(C)ccc(O)c3C)c2n1` (single isomer, unassigned) [Compound 577, 6-amino-7-(3-hydroxy-2,6-dimethyl-phenyl)-2-methyl-pyrrolo[2,3-d]pyrimidine-5-carboxamide]: the IC50 on LCK was < 50 nM.
`Cc1ncc(O)c(C)c1-n1c(N)c(C(N)=O)c2cc(Cl)cnc21` [Compound 543]: the IC50 at PKMYT1 is < 50 nM; on LCK it was 100 to 1000 nM.
Turning to `Cc1ccc(O)c(C)c1-n1c(N)c(C(N)=O)c2cnc(NC(=O)[C@@H]3CCCN3)nc21` [Compound 593, (S)-6-amino-7-(3-hydroxy-2,6-dimethylphenyl)-2-(pyrrolidine-2-carboxamido)-7H-pyrrolo[2,3-d]pyrimidine-5-carboxamide], the IC50 on PKMYT1 was < 50 nM; on LCK, 100 to 1000 nM.
Consider `Cc1ccc(O)c(C)c1-n1c(N)c(C(N)=O)c2cnc(/C=C/C3CC3)nc21` [Compound 651], for which the IC50 on PKMYT1 and at LCK was < 50 nM in each case.
As for `CCc1c(O)cc(F)c(C)c1-n1c(N)c(C(N)=O)c2cnc(C)nc21` [Compound 659], the IC50 at PKMYT1 and at LCK was < 50 nM throughout.
`Cc1c(O)cc(F)c(C)c1-n1c(N)c(C(N)=O)c2cc(Cl)cnc21` [Compound 565, 2-amino-5-chloro-1-(3-fluoro-5-hydroxy-2,6-dimethylphenyl)-1H-pyrrolo[2,3-b]pyridine-3-carboxamide]: the IC50 at PKMYT1 and on LCK was < 50 nM in each case.
With `Cc1cc2ccoc2c(C)c1-n1c(N)c(C(N)=O)c2cc(Cl)cnc21` [Compound 544, 2-amino-5-chloro-1-(5,7-dimethylbenzofuran-6-yl)-1H-pyrrolo[2,3-b]pyridine-3-carboxamide], the IC50 was > 1000 nM on PKMYT1 and 100 to 1000 nM at LCK.
Consider `Cc1c(O)cc(F)c(C)c1-n1c(N)c(C(N)=O)c2cncc(F)c21` [Compound 599, 2-amino-7-fluoro-1-(3-fluoro-5-hydroxy-2,6-dimethylphenyl)-1H-pyrrolo[3,2-c]pyridine-3-carboxamide], for which the IC50 at PKMYT1 and at LCK was < 50 nM throughout.
Consider `CCc1c(O)cc(F)c(C)c1-n1c(N)c(C(N)=O)c2cnc(C3CC3)c(C#N)c21` [Compound 673, 2-amino-7-cyano-6-cyclopropyl-1-(2-ethyl-5-fluoro-3-hydroxy-6-methyl-phenyl)pyrrolo[3,2-c]pyridine-3-carboxamide], for which the half-inhibitory concentration (IC50) at PKMYT1 and on LCK was < 50 nM in each case.
As to `Cc1c(O)cc(F)c(C)c1-n1c(N)c(C(N)=O)c2cnc(C3CC3)nc21` (atropisomer, axis not shown) [Compound 656], the IC50 at PKMYT1 and at LCK was < 50 nM throughout.
Take `Cc1c(O)cc(F)c(C)c1-n1c(N)c(C(N)=O)c2cnc(C3CC3)c(C#N)c21` [Compound 663, 2-amino-7-cyano-6-cyclopropyl-1-(3-fluoro-5-hydroxy-2,6-dimethyl-phenyl)pyrrolo[3,2-c]pyridine-3-carboxamide]: the IC50 on PKMYT1 and on LCK was < 50 nM throughout.
On to `Cc1ncc2c(C(N)=O)c(N)n(-c3c(C)c(O)cc(F)c3C)c2n1` (atropisomer, axis not shown) [Compound 606, 6-amino-7-(3-fluoro-5-hydroxy-2,6-dimethyl-phenyl)-2-methyl-pyrrolo[2,3-d]pyrimidine-5-carboxamide], for which the IC50 on PKMYT1 and at LCK was < 50 nM throughout.
Take `Cc1ccc(O)c(C)c1-n1c(N)c(C(N)=O)c2cnc(C3CC3)c(C#N)c21` [Compound 662]: the IC50 at PKMYT1 and at LCK was < 50 nM each time.
For `Cc1ccc(O)c(C)c1-n1c(N)c(C(N)=O)c2cncnc21` [Compound 547, 6-amino-7-(3-hydroxy-2,6-dimethylphenyl)-7H-pyrrolo [2,3-d]pyrimidine-5-carboxamide], the IC50 at PKMYT1 was < 50 nM; at LCK it was 50 to 100 nM.
Regarding `Cc1ncc2c(C(N)=O)c(N)n(-c3c(C)c(O)cc(F)c3C)c2n1` (atropisomer, axis not shown) [Compound 607, 6-amino-7-(3-fluoro-5-hydroxy-2,6-dimethyl-phenyl)-2-methyl-pyrrolo[2,3-d]pyrimidine-5-carboxamide], the IC50 at PKMYT1 and at LCK was > 1000 nM throughout.
`Cc1nc(C)c2c(C(N)=O)c(N)n(-c3c(C)ccc(O)c3C)c2n1` [Compound 566, 6-amino-7-(3-hydroxy-2,6-dimethylphenyl)-2,4-dimethyl-7H-pyrrolo[2,3-d]pyrimidine-5-carboxamide]: the IC50 at PKMYT1 is < 50 nM; on LCK, 100 to 1000 nM.
As to `Cc1cc2c(C(N)=O)c(N)n(-c3c(C)cc4c(c3C)OCC4)c2nc1C` [Compound 675], the IC50 on PKMYT1 is > 1000 nM; at LCK, 100 to 1000 nM.
For `Cc1ccc(O)c(C)c1-n1c(N)c(C(N)=O)c2cnc(C3CC3)c(F)c21` [Compound 605, 2-amino-6-cyclopropyl-7-fluoro-1-(3-hydroxy-2,6-dimethylphenyl)-1H-pyrrolo[3,2-c]pyridine-3-carboxamide] the same measures were < 50 nM and < 50 nM.
For the molecule `Cc1ncc2c(C(N)=O)c(N)n(-c3c(C)cc4[nH]c(=O)oc4c3C)c2n1` [Compound 680], the IC50 at PKMYT1 and on LCK was > 1000 nM in each case.
For `Cc1ccc(O)c(C)c1-n1c(N)c(C(N)=O)c2cnc(CO)nc21` [Compound 592, 6-amino-7-(3-hydroxy-2,6-dimethylphenyl)-2-(hydroxymethyl)-7H-pyrrolo[2,3-d]pyrimidine-5-carboxamide], the IC50 was in the range of 50 to 100 nM on PKMYT1 and 100 to 1000 nM at LCK.
Take `Cc1cnc2c(c1)c(C(N)=O)c(N)n2-c1c(C)ccc(O)c1N` [Compound 556, 2-amino-1-(2-amino-3-hydroxy-6-methylphenyl)-5-methyl-1H-pyrrolo[2,3-b]pyridine-3-carboxamide]: the IC50 at PKMYT1 and at LCK was < 50 nM throughout.
As to `Cc1c(O)cc(F)c(C)c1-n1c(N)c(C(N)=O)c2cnc(C3CC3)c(F)c21` (atropisomer, axis not shown) [Compound 655], the IC50 at LCK was < 50 nM.
As for `Cc1ccc(O)c(C)c1-n1c(N)c(C(N)=O)c2cc3c(nc21)OCCN3C` [Compound 568, 7-amino-6-(3-hydroxy-2,6-dimethylphenyl)-1-methyl-1,2,3,6-tetrahydropyrrolo [3′,2′:5,6]pyrido[2,3-b][1,4]oxazine-8-carboxamide], the IC50 at PKMYT1 is < 50 nM.
Take `Cc1ccc(O)c(C)c1-n1c(N)c(C(N)=O)c2cnc(CCc3cncs3)c(F)c21` [Compound 642]: the IC50 at PKMYT1 and at LCK was < 50 nM throughout.
Turning to `Cc1cc2c(c(C)c1-n1c(N)c(C(N)=O)c3cc(Cl)cnc31)OCO2` [Compound 546, 2-amino-5-chloro-1-(4,6-dimethylbenzo[d][1,3]dioxol-5-yl)-1H-pyrrolo[2,3-b]pyridine-3-carboxamide], at PKMYT1, the IC50 is > 1000 nM.
Same read-out and setting: the value for `Cc1ccc(O)c(C)c1-n1c(N)c(C(N)=O)c2cnc(Cl)nc21` [Compound 618, 6-amino-2-chloro-7-(3-hydroxy-2,6-dimethylphenyl)-7H-pyrrolo[2,3-d]pyrimidine-5-carboxamide] was < 50 nM; that for `Cc1ccc(O)c(C)c1-n1c(N)c(C(N)=O)c2cnc(C#CC3CC3)nc21` [Compound 621] was < 50 nM.
As for `Cc1cc2c(C(N)=O)c(N)n(-c3c(C)ncc(O)c3C)c2nc1C` [Compound 560, 2-amino-1-(5-hydroxy-2,4-dimethylpyridin-3-yl)-5,6-dimethyl-1H-pyrrolo[2,3-b]pyridine-3-carboxamide], on LCK, the IC50 lay in the range of 100 to 1000 nM.
On to `Cc1ccc(O)c(C)c1-n1c(N)c(C(N)=O)c2cnc(N3CC(O)C3)nc21` [Compound 573], for which the IC50 on PKMYT1 was < 50 nM.

The values above are taken from patent publication US20250388583A1, “COMPOUNDS AND METHOD FOR PKMYT1 INHIBITION” (Engine Biosciences Pte. Ltd., priority 2022, published 2025).
